Reference: patent US6984649B1, “Pyridine derivatives” (Bayer Aktiengesellschaft, priority 2000, dated 2006)
Structures can show the parent of a compound that is named as a salt.

tested on: A549 human lung epithelium cell line; assay: RANTES production in response to TNF-α from A549 cells; assay type: cell-based; details: Homo sapiens, A549, A549 cells, 100 ng/ml TNF-α, read-out: Cellular activity grade (A549) (Cellular IC50)
How it was run: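 RANTES released into supernatant was measured by DELFIA-type sandwich immunoassay, Eu-labelled detection antibody, 340 nm excitation/615 nm emission, recombinant RANTES standard. Beforehand, cells seeded at 4×10^4/well received test compound (1% DMSO) for 1 h at 37 °C, followed by 24 h TNF-α (100 ng/ml) stimulation.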

SMILES | IC50
CC(C)(C)C(=O)COc1cccc(O)c1-c1cc(C2CCNCC2)c(C#N)c(N)n1 [Example 2-78] | < 1000 nM
N#Cc1c(C2CCNCC2)cc(-c2ccccc2O)nc1N [Example 1-13] | < 1000 nM
CS(=O)(=O)N1Cc2c(C3CCCNC3)cc(-c3c(O)cccc3OCC3CC3)nc2NC1=O (centres unmarked) [Example 24-4, 7-[2-(cyclopropylmethoxy)-6-hydroxyphenyl]-3-(methylsulfonyl)-5-(3-piperidinyl)-3,4-dihydropyrido[2,3-d]pyrimidin-2(1H)-one hydrochloride] | < 1000 nM
O=C1CCc2c(C3CCCNC3)cc(-c3ccccc3O)nc2N1 (centres unmarked) [Example 27-1, 7-(2-hydroxyphenyl)-5-(3-piperidinyl)-3,4-dihydro-1,8-naphthyridin-2(1H)-one hydrochloride] | < 1000 nM
N#Cc1c(C2CCCNC2)cc(-c2c(O)cccc2OCc2ccc3ccccc3c2)nc1N (centres unmarked) [Example 2-21] | < 1000 nM
CC(C)COc1cccc(O)c1-c1cc(C2CCNCC2)c(C#N)c(N)n1 [Example 2-71] | < 1000 nM
CCCN(CCC)C1CCCC(c2cc(-c3ccccc3O)nc(N)c2C#N)C1 (centres unmarked) [Example 1-43] | < 1000 nM
N#Cc1c(C2CCCNC2)cc(-c2c(O)cccc2OCc2cccc(Cl)c2)nc1N (centres unmarked) [Example 2-18] | 1000 to 10000 nM
